Reference: PubChem BioAssay AID270 (DTP/NCI, 2004)
“And” between values parts separate entries of the source, which are not always exact repeats. Equal values may be shown once. Results filed as inconclusive are left out.

Test system: BDF1 mice, s.c. Lewis lung carcinoma, T/C %
Assay: NCI In Vivo Anticancer Drug Screen. Data for tumor model Lewis Lung Carcinoma (subcutaneous) in B6D2F1 (BDF1) mice
Outline: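 Tumor-bearing mice were treated with test compound, and either survival or tumor size was recorded. Values are the treated-group measurement divided by that of the vehicle-treated control group.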

[1] = endpoint: median survival time, dose: 12.5 mg/kg/injection, schedule: Q01DX009 (ip), vehicle: saline, higher = longer survival

`Nc1nc(N)c2nc(CNc3ccc(C(=O)NC(CCC(=O)O)C(=O)O)cc3)cnc2n1` (stereo unspecified) was tested, and the T/C (endpoint: mean tumor weight, dose: 0.02 mg/kg/injection, schedule: Q01DX011 (ip), vehicle: other, higher = larger tumour) was 94 % of control, the T/C (endpoint: mean tumor weight, dose: 0.04 mg/kg/injection, schedule: Q01DX011 (ip), vehicle: other, higher = larger tumour) was 103 % of control and the T/C (endpoint: mean tumor weight, dose: 0.08 mg/kg/injection, schedule: Q01DX011 (ip), vehicle: other, higher = larger tumour) was 97 % of control. For the same compound, the T/C (endpoint: mean tumor weight, dose: 2.5 micrograms/kg/injection, schedule: Q01DX011 (ip), vehicle: saline, higher = larger tumour) was 76 % of control, the T/C (endpoint: mean tumor weight, dose: 5.0 micrograms/kg/injection, schedule: Q01DX011 (ip), vehicle: saline, higher = larger tumour) was 98 % of control and the T/C (endpoint: mean tumor weight, dose: 20.0 micrograms/kg/injection, schedule: Q01DX011 (ip), vehicle: saline, higher = larger tumour) was 100 % of control.
With `CCC1/C=C/C=C/CC(C)C(O)C(C)(O)C(=O)C(C)C(O)C(C)C(=O)C(C)C(O)C(C)/C=C/C(=O)OC2C(C)C(CC1)OC1(OC(CC(C)O)C(C)CC1=O)C2C` (stereo unspecified) (tested in a mixture with another compound) the T/C (endpoint: mean tumor weight, dose: 2.0 mg/kg/injection, schedule: Q01DX011 (ip), vehicle: saline, higher = larger tumour) was 106 % of control, the T/C (endpoint: mean tumor weight, dose: 4.0 mg/kg/injection, schedule: Q01DX011 (ip), vehicle: saline, higher = larger tumour) was 94 % of control and the T/C (endpoint: mean tumor weight, dose: 8.0 mg/kg/injection, schedule: Q01DX011 (ip), vehicle: saline, higher = larger tumour) was 82 % of control.
In the case of `COc1cc(O)c2c(c1)Cc1cc(C)cc(O)c1C2=O`, the T/C (endpoint: median survival time, dose: 0.1 mg/kg/injection, schedule: Q01DX009 (ip), vehicle: saline with Tween-80, higher = longer survival) is reported as 117 % of control, the T/C (endpoint: median survival time, dose: 0.2 mg/kg/injection, schedule: Q01DX009 (ip), vehicle: saline with Tween-80, higher = longer survival) is reported as 120 % of control and 122 % of control and the T/C (endpoint: median survival time, dose: 0.4 mg/kg/injection, schedule: Q01DX009 (ip), vehicle: saline with Tween-80, higher = longer survival) is reported as 108 % of control. For the same compound, the T/C (endpoint: median survival time, dose: 6.25 mg/kg/injection, schedule: Q01DX009 (ip), vehicle: saline with Tween-80, higher = longer survival) was 110 % of control.
In the case of `CC1OC(OCC2OC(Oc3c(-c4ccc(O)c(O)c4)oc4cc(O)cc(O)c4c3=O)C(O)C(O)C2O)C(O)C(O)C1O` (stereo unspecified), the T/C (endpoint: mean tumor weight, dose: 62.5 mg/kg/injection, schedule: Q01DX011 (ip), vehicle: saline, higher = larger tumour) is reported as 104 % of control, the T/C (endpoint: mean tumor weight, dose: 125.0 mg/kg/injection, schedule: Q01DX011 (ip), vehicle: saline, higher = larger tumour) is reported as 93 % of control and the T/C (endpoint: mean tumor weight, dose: 250.0 mg/kg/injection, schedule: Q01DX011 (ip), vehicle: saline, higher = larger tumour) is reported as 67 % of control. For the same compound, the T/C (endpoint: mean tumor weight, dose: 500.0 mg/kg/injection, schedule: Q01DX011 (ip), vehicle: saline, higher = larger tumour) was 52 % of control.
For `CCCCn1cnc2c(SC)nc(N)nc21`, the T/C (endpoint: mean tumor weight, dose: 30.0 mg/kg/injection, schedule: Q01DX011 (ip), vehicle: other, higher = larger tumour) was 79 % of control, the T/C (endpoint: mean tumor weight, dose: 60.0 mg/kg/injection, schedule: Q01DX011 (ip), vehicle: other, higher = larger tumour) was 103 % of control and the T/C (endpoint: mean tumor weight, dose: 120.0 mg/kg/injection, schedule: Q01DX011 (ip), vehicle: other, higher = larger tumour) was 124 % of control.
For `CS(=O)(=O)OCCCNCCCOS(C)(=O)=O`, the T/C (endpoint: mean tumor weight, dose: 10.0 mg/kg/injection, schedule: Q01DX011 (ip), vehicle: saline, higher = larger tumour) was 63 % of control, the T/C (endpoint: mean tumor weight, dose: 20.0 mg/kg/injection, schedule: Q01DX011 (ip), vehicle: saline, higher = larger tumour) was 70 % of control and the T/C (endpoint: mean tumor weight, dose: 40.0 mg/kg/injection, schedule: Q01DX011 (ip), vehicle: saline, higher = larger tumour) was 42 % of control. The T/C (endpoint: median survival time, dose: 10.0 mg/kg/injection, schedule: Q01DX009 (ip), vehicle: saline, higher = longer survival) was 105 % of control and the T/C (endpoint: median survival time, dose: 20.0 mg/kg/injection, schedule: Q01DX009 (ip), vehicle: saline, higher = longer survival) was 101 % of control.
In the case of `CC1=CC(=O)N(NC(N)=O)C1=O`, the T/C [1] is reported as 107 % of control, the T/C (endpoint: median survival time, dose: 25.0 mg/kg/injection, schedule: Q01DX009 (ip), vehicle: saline, higher = longer survival) is reported as 104 % of control and the T/C (endpoint: median survival time, dose: 50.0 mg/kg/injection, schedule: Q01DX009 (ip), vehicle: saline, higher = longer survival) is reported as 90 % of control.
In the case of `CCn1cnc2c(=S)nc(N)[nH]c21`, the T/C (endpoint: mean tumor weight, dose: 3.8 mg/kg/injection, schedule: Q01DX011 (ip), vehicle: other, higher = larger tumour) is reported as 81 % of control, the T/C (endpoint: mean tumor weight, dose: 7.5 mg/kg/injection, schedule: Q01DX011 (ip), vehicle: other, higher = larger tumour) is reported as 63 % of control and the T/C (endpoint: mean tumor weight, dose: 15.0 mg/kg/injection, schedule: Q01DX011 (ip), vehicle: other, higher = larger tumour) is reported as 17 % of control.
With `[I][Hg][CH2]C1COCC([CH2][Hg][I])O1.[I][Hg][CH2]C1COCC([CH2][Hg][I])O1` (stereo unspecified) the T/C (endpoint: mean tumor weight, dose: 19.0 mg/kg/injection, schedule: Q01DX011 (ip), vehicle: other, higher = larger tumour) was 80 % of control, the T/C (endpoint: mean tumor weight, dose: 29.0 mg/kg/injection, schedule: Q01DX011 (ip), vehicle: other, higher = larger tumour) was 57 % of control and the T/C (endpoint: mean tumor weight, dose: 66.0 mg/kg/injection, schedule: Q01DX011 (ip), vehicle: other, higher = larger tumour) was 36 % of control.
`Cc1ccc(Oc2ccc3cc[n+](C)cc3c2)cc1` was tested, and the T/C (endpoint: median survival time, dose: 6.25 mg/kg/injection, schedule: Q01DX009 (ip), vehicle: saline, higher = longer survival) was 96 % of control and the T/C [1] was 101 % of control.
